Experimental data reported in patent publication US20210238139A1, “MODULATORS OF TRYPTOPHAN CATABOLISM” (E-Therapeutics PLC, priority 2018, published 2021).

Test system: SK-OV-3 cells
Experiment: Effect of compounds on tryptophan catabolism in SK-OV-3 cell line (inhibition of kynurenine production, LC-MS/MS)
Assay type: cell-based
Settings: Homo sapiens, SK-OV-3, 24 h, SK-OV-3 cell line, 24 h incubation, kynurenine in supernatant by LC-MS/MS; read-out: IC50 Ranges (ic50 values for inhibition of Kynurenine production)
Experimental: SK-OV-3 cells are seeded in 96-well plates in McCoy's 5A medium supplemented with 10% FBS and incubated overnight at 37° C., 5% CO2, 95% humidity. The […] growth medium is replaced with DMEM F-12 medium supplemented with 6 mg/mL L-tryptophan. Compounds are added to the wells and incubated for 24 h at 37° C., 5% CO2, 95% humidity. Compounds are tested at 8 consecutive 3-fold dilutions starting from 30 μM in duplicate. At the end of incubation, concentration of kynurenine in cell supernatants is […] determined by LC-MS/MS. In parallel, cell viability is assessed by measurement of ATP using CellTiter Glo assay (Promega), according to manufacturer's protocol. Inhibition of Kyn production is calculated using the following formula: […] IC50 ranges for compounds of the invention are presented in Table 2, whereby the IC50 ranges are as follows: • A: […]

Compound | IC50
O=C(NCc1ccc(F)cc1)N(Cc1cccs1)C1CCCC1 [Compound 8, 1-cyclopentyl-3-[(4-fluorophenyl)methyl]-1-(2-thienylmethyl)urea] | > 5000 nM
Cc1oncc1N(Cc1ccc2scnc2c1)C(=O)Nc1ccc(C#N)cc1 [Compound 281, 1-(1,3-benzothiazol-5-ylmethyl)-3-(4-cyanophenyl)-1-(5-methylisoxazol-4-yl)urea] | 1000 to 5000 nM
Cc1ccc(CN(C(=O)Nc2ccc(C#N)cc2)C2CC(F)C2)o1 (stereo not shown) [Compound 208, 3-(4-cyanophenyl)-1-(3-fluorocyclobutyl)-1-[(5-methyl-2-furyl)methyl]urea] | 500 to 1000 nM
O=C(Nc1ccccc1)N(Cc1cccs1)c1ccc(Cl)cc1 [Compound 196, 1-(4-chlorophenyl)-3-phenyl-1-(2-thienylmethyl)urea] | 1000 to 5000 nM
NC(=O)c1cc(CN(C(=O)Nc2ccc(F)cc2)C2CCCC2)ccc1F [Compound 122, 5-[[cyclopentyl-[(4-fluorophenyl)carbamoyl]amino]methyl]-2-fluoro-benzamide] | 1000 to 5000 nM
O=C(Nc1ccncc1)N(Cc1cccs1)C1CCCC1 [Compound 11, 1-cyclopentyl-3-(4-pyridyl)-1-(2-thienylmethyl)urea] | 1000 to 5000 nM
CC(c1cccc(C#N)c1)N(C(=O)Nc1ccc(C#N)cc1)C1CCC1 (racemic) [Compound 184, 3-(4-cyanophenyl)-1-[1-(3-cyanophenyl)ethyl]-1-cyclobutyl-urea] | 100 to 500 nM
O=C(Nc1cccs1)N(c1ccccc1)C1CCCC1 [Compound 58, 1-cyclopentyl-1-phenyl-3-(2-thienyl)urea] | 1000 to 5000 nM
Cc1ccc(CN(C(=O)NCc2ccc(C#N)cc2)C2CCCC2)o1 [Compound 96, 3-[(4-cyanophenyl)methyl]-1-cyclopentyl-1-[(5-methyl-2-furyl)methyl]urea] | > 5000 nM
Cc1ccc(CN(C(=O)Nc2ccc(C3COC3)cc2)C2CCCC2)o1 [Compound 317, 1-cyclopentyl-1-[(5-methyl-2-furyl)methyl]-3-[4-(oxetan-3-yl)phenyl]urea] | 1000 to 5000 nM
N#Cc1cccc(CN(C(=O)Nc2ccccc2)C2CCCC2)n1 [Compound 125, 1-[(6-cyano-2-pyridyl)methyl]-1-cyclopentyl-3-phenyl-urea] | 1000 to 5000 nM
O=C(Nc1ccc(F)c(F)c1)N(Cc1ccco1)C1CCCC1 [Compound 30, 1-cyclopentyl-3-(3,4-difluorophenyl)-1-(2-furylmethyl)urea] | 100 to 500 nM
O=C(Nc1ccc(Cl)cc1)N(Cc1nc2ccccc2s1)C1CCC1 [Compound 248, 1-(1,3-benzothiazol-2-ylmethyl)-3-(4-chlorophenyl)-1-cyclobutyl-urea] | 100 to 500 nM
O=C(Nc1ccc(F)c(F)c1)N(Cc1ccccc1Cl)C1CCCC1 [Compound 40, 1-[(2-chlorophenyl)methyl]-1-cyclopentyl-3-(3,4-difluorophenyl)urea] | 100 to 500 nM
O=C(Nc1ccc(Cl)cc1)N(Cc1ncccn1)C1CCCC1 [Compound 73, 3-(4-chlorophenyl)-1-cyclopentyl-1-(pyrimidin-2-ylmethyl)urea] | 1000 to 5000 nM
O=C(Nc1ccc(C#CCO)cc1)N(Cc1ccnc(C(F)(F)F)c1)C1CCC1 [Compound 296, 1-cyclobutyl-3-[4-(3-hydroxyprop-1-ynyl)phenyl]-1-[[2-(trifluoromethyl)-4-pyridyl]methyl]urea] | 100 to 500 nM
CC(C)(C)OC(=O)N1CCC(CN(C(=O)Nc2ccc(F)cc2)C2CCCC2)CC1 [Compound 119, tert-butyl 4-[[cyclopentyl-[(4-fluorophenyl)carbamoyl]amino]methyl]piperidine-1-carboxylate] | 500 to 1000 nM
Cc1ccc(CN(C(=O)Nc2ccc(C#CCO)cc2)C2CCC2)o1 [Compound 297, 1-cyclobutyl-3-[4-(3-hydroxyprop-1-ynyl)phenyl]-1-[(5-methyl-2-furyl)methyl]urea] | < 100 nM
Cc1ccc(CN(C(=O)Nc2ccc(Cl)cc2)C2CCC(F)(F)C2)o1 (stereo not shown) [Compound 245, 3-(4-chlorophenyl)-1-(3,3-difluorocyclopentyl)-1-[(5-methyl-2-furyl)methyl]urea] | 100 to 500 nM
Cc1ccc(CN(C(=O)Nc2ccc(Cl)cc2F)C2CCCC2)o1 [Compound 172, 3-(4-chloro-2-fluoro-phenyl)-1-cyclopentyl-1-[(5-methyl-2-furyl)methyl]urea] | 100 to 500 nM
Cc1ccc(CN(C(=O)Nc2ccc(C#N)cc2)c2ncccn2)o1 [Compound 324, 3-(4-cyanophenyl)-1-[(5-methyl-2-furyl)methyl]-1-pyrimidin-2-yl-urea] | > 5000 nM

Compound | IC50
O=C(Nc1ccc(Cl)cc1)N(Cc1ccn2ccnc2n1)C1CCC1 [Compound 275, 3-(4-chlorophenyl)-1-cyclobutyl-1-(imidazo[1,2-a]pyrimidin-7-ylmethyl)urea] | 1000 to 5000 nM
Cc1oc(-c2ccccc2)nc1CNC(=O)Nc1ccccc1 [Compound 203, 1-[(5-methyl-2-phenyl-oxazol-4-yl)methyl]-3-phenyl-urea] | 1000 to 5000 nM
Cc1ccc(CN(C(=O)Nc2ccc(C#CCO)cc2)c2nccn2C)o1 [Compound 309, 3-[4-(3-hydroxyprop-ynyl)phenyl]-1-[(5-methyl-2-furyl)methyl]-1-(1-methylimidazol-2-yl)urea] | 100 to 500 nM
O=C(Nc1ccc(F)cc1)N(Cc1cccs1)C1CCCC1 [Compound 34, 1-cyclopentyl-3-(4-fluorophenyl)-1-(2-thienylmethyl)urea] | 100 to 500 nM
N#Cc1ccc(NC(=O)N(Cc2ccn3ccnc3n2)C2CCC2)cc1 [Compound 274, 3-(4-cyanophenyl)-1-cyclobutyl-1-(imidazo[1,2-a]pyrimidin-7-ylmethyl)urea] | 1000 to 5000 nM
CC(c1ccccn1)N(C(=O)Nc1ccc(Cl)cc1)C1CCCC1 (racemic) [Compound 174, 3-(4-chlorophenyl)-1-cyclopentyl-1-[1-(2-pyridyl)ethyl]urea] | 100 to 500 nM
N#Cc1ccc(NC(=O)N(Cc2cc3ccccc3o2)C2CCCC2)cc1 [Compound 132, 1-(benzofuran-2-ylmethyl)-3-(4-cyanophenyl)-1-cyclopentyl-urea] | 100 to 500 nM
CC(c1cccc(C#N)c1)N(C(=O)Nc1ccccc1)C1CCCC1 (racemic) [Compound 186, 1-[1-(3-cyanophenyl)ethyl]-1-cyclopentyl-3-phenyl-urea] | 100 to 500 nM
Cc1ccc(CN(C(=O)N(C)c2ccc(C#CCO)cc2)C2CCC2)o1 [Compound 306, 1-cyclobutyl-3-[4-(3-hydroxyprop-1-ynyl)phenyl]-3-methyl-1-[(5-methyl-2-furyl)methyl]urea] | 1000 to 5000 nM
CCc1ccc(CN(C(=O)Nc2ccc(C#N)cc2)C2CCCC2)o1 [Compound 295, 3-(4-cyanophenyl)-1-cyclopentyl-1-[(5-ethyl-2-furyl)methyl]urea] | < 100 nM
Cc1nocc1N(CC1CCC2(CC1)COC2)C(=O)Nc1ccc(Cl)cc1 [Compound 326, 3-(4-chlorophenyl)-1-(3-methylisoxazol-4-yl)-1-(2-oxaspiro[3.5]nonan-7-ylmethyl)urea] | > 5000 nM
N#Cc1cccc(CN(C(=O)Nc2ccc(Cl)cc2)C2CCCC2)n1 [Compound 157, 3-(4-chlorophenyl)-1-[(6-cyano-2-pyridyl)methyl]-1-cyclopentyl-urea] | 100 to 500 nM
N#Cc1ccc(NC(=O)N(Cc2nc3ccccc3s2)C2CCC2)cc1 [Compound 229, 1-(1,3-benzothiazol-2-ylmethyl)-3-(4-cyanophenyl)-1-cyclobutyl-urea] | 100 to 500 nM
COc1cc(NC(=O)N(Cc2ccc(C)o2)C2CCCC2)ccc1-n1cc(CO)nn1 [Compound 323, 1-cyclopentyl-[4-[4-(hydroxymethyl)triazol-1-yl]-3-methoxy-phenyl]-1-[(5-methyl-2-furyl)methyl]urea] | 100 to 500 nM
O=C(Nc1ccc(Cl)cc1)N(Cc1cn2ccncc2n1)C1CCC1 [Compound 212, 3-(4-chlorophenyl)-1-cyclobutyl-1-(imidazo[1,2-a]pyrazin-2-ylmethyl)urea] | 1000 to 5000 nM
Cc1ccc(CN(C(=O)Nc2ccc(C#N)cc2)c2cncn2C)o1 [Compound 231, 3-(4-cyanophenyl)-1-[(5-methyl-2-furyl)methyl]-1-(3-methylimidazol-4-yl)urea] | 1000 to 5000 nM
COC1CC(N(Cc2ccc(C)o2)C(=O)Nc2ccc(Cl)cc2)C1 (stereo not shown) [Compound 251, 3-(4-chlorophenyl)-1-(3-methoxycyclobutyl)-1-[(5-methyl-2-furyl)methyl]urea] | 500 to 1000 nM
Cc1ccc(CN(C(=O)Nc2nc(C#N)cs2)C2CCCC2)o1 [Compound 135, 3-(4-cyanothiazol-2-yl)-1-cyclopentyl-1-[(5-methyl-2-furyl)methyl]urea] | 1000 to 5000 nM
CC(c1cccc(C#N)c1)N(C(=O)Nc1ccc(Cl)cc1)C1CCC1 (racemic) [Compound 192, 3-(4-chlorophenyl)-1-[1-(3-cyanophenyl)ethyl]-1-cyclobutyl-urea] | < 100 nM
O=C(NC1CCCCC1)N(Cc1cccs1)C1CCCC1 [Compound 12, 3-cyclohexyl-1-cyclopentyl-1-(2-thienylmethyl) urea] | 1000 to 5000 nM
CCc1ccc(NC(=O)N(Cc2ccc(C)s2)C2CCCC2)cc1 [Compound 25, 1-cyclopentyl-3-(4-ethylphenyl)-1-[(5-methyl-2-thienyl)methyl]urea] | 100 to 500 nM

Same assay, conditions: SK-OV-3 cell line, 24 h incubation, kynurenine in supernatant by LC-MS/MS; read-out: IC50 Ranges (ic50 values for inhibition of Kynurenine production)

Compound | IC50
Cc1ccc(CN(C(=O)Nc2ccc(Cl)cc2)c2cncn2C)o1 [Compound 193, 3-(4-chlorophenyl)-1-[(5-methyl-2-furyl)methyl]-1-(3-methylimidazol-4-yl)urea] | 500 to 1000 nM
